Source: US20260034042A1, “Composition with Improved SPF and UVA Photoprotection” (Symrise AG, priority 2022, published 2026)

What was measured:
Assay type in all cases: physicochemical
[1] = Determination of the in-vitro SPF on PMMA plates (Labsphere UV-200S, Colipa method)
Method: (§1) Determination of the in-vitro SPFs and UVA-PF
(§2) The SPF boosting and UVA-PF boosting test is carried out as in-vitro determination of SPFs.
(§3) Principle: The formulation to be tested (emulsion, solution) is weighed on PMMA plates with the help of an analytical balance. The formulation if distributed and incorporated on the plate using a method corresponding to the formulation. The thus prepared plates are then measured on a Labsphere device and the results are calculated as SPF with a suitable software.
(§4) PMMA plates (Polymethylmethacrylate), measuring 3 cm×8.5 cm (WVVW5 plates based on […] “Determination of UVA photoprotection in vitro” with 5μ roughness by Schonberg GmbH & Co. AG) are used to perform an SPF measurement.
(§5) A reference sample is obtained by distributing 25 to 28 mg glycerin (99.5%) with the index finger on the roughened side of the PMMA plate. The glycerin film must be very thin and uniform. Subsequently, this plate is stored for at least 2 hours.
(§6) The reference plate is measured with the following transmission values:
(§7) The sample to be measured should be homogeneously mixed with a spatula before application. 1.2 mg/cm2 of sample is evenly distributed in several rows of dots on the PMMA plate. In order to minimise the evaporation of the sample during weighing, this process must be carried out quickly. The sample is then evenly distributed by hand with a finger previously saturated with the sample material. The distribution takes place in two phases: • Phase 1: Fast and uniform distribution with a slight pressure until the emulsion is broken. • Phase 2: The sample is massaged into the rough surface with strong pressure and the process should last 30 seconds. In this context under strong pressure means that when massaged on a scale, this indicates at least […].
(§8) Sun oils: The product quantity is generally 1.3 mg/cm^2. For strongly spreading oils, less product is applied, as the amount of oil cannot be “absorbed” from the plate. Then the amount of application should be reduced to 1.0-0.75 mg/cm^2. Application method here is also the 30 s fast/light and 30 s strong method. • Sun sprays: The “30/30 method” applies here (especially for thicker sprays). • For very liquid sprays (similar to water): • Fast and uniform distribution with a slight pressure, until the emulsion “breaks”. • The process should take 45 s.
(§9) The finished sample plates are stored dust-free and measured at the earliest after 15 minutes.
(§10) The samples are measured using the UV-200S device, using the specified Colipa method. The Labsphere user manual also applies.
(§11) A new “Study” is opened via File and then the “Colipa Guideline 2011” method is selected under the heading “Study”. In the new window “Colipa Method Options” the number of plates (3 plates), the measuring points per plate (5 measuring points) and the in vivo SPF and, if necessary, the irradiance intensity of the external irradiance device (Solar Simulator Irradiance) entered. • The irradiance set on the external device is 765 W/m2 as standard. The complete naming of the sample is done via Study”, “Study Information”.
At the beginning of the measurement, a blank value of the glycerin reference sample is measured (“scan blank plate”). In order to determine the SPF of a sample, a total of 15 measuring points (3 plates of 5 measuring points) are then created (“Scan Location”).
• After the first measurement run, the device calculates an irradiation dose (Irradiation Dose/J/cm2) and the duration (exposure time) for each plate. The plates are irradiated in the external irradiation device (irradiation duration=average value of the 3 plates).
The calculation of irradiation dose and exposure time is based on the irradiance (765 W/m^2) set on the external device. […]

[2] = Determination of the in-vitro UVA-PF on PMMA plates (Labsphere UV-200S, Colipa method, post irradiation)
Method: UVA-photoprotection is expressed in UVA-protection factor (UVA-PF). UVA-PF is similar to SPF in that it is a measure of how well a sunscreen protects the skin from UVA radiation. It is performed in a similar manner by irradiating the skin with UVA. This can be done in vivo with human skin or in vitro, where it is performed by applying the sunscreen to an PMMA plate (Polymethymethacrylate plate) and measuring how much UVA passes through the slide with or without the sunscreen. To characterize protection from UVA radiation, the PPD (Persistent Pigment Darkening) method, which measures the color of the skin observed 2 to 4 hours after exposure of the skin to UVA radiation, is used. The PPD method appears to correlate well with the in vitro UVA-PF testing.
as §1, §2, §3, §4, §5, §6, §7, §8, §9, §10, §11
(§12) At the beginning of the measurement, a blank value of the glycerin reference sample is measured (“scan blank plate”). […]

[3] = Critical wavelength of the sunscreen formulation (post irradiation)
Text: The term “broad-spectrum photo-protection” means photo-protection from both UVA and UVB radiation. Broad-spectrum is based on the breadth of protection offered by a sunscreen in the UVA and UVB spectrums. In order for a sunscreen to be considered broad-spectrum, it must have achieved a critical wavelength of at least 370 nm, meaning that 10% of the protection that the sunscreen offers has to be for wavelengths above 370 nm. A critical wavelength>370 nm is a rigorous minimum that sunscreen products should achieve to be labelled as broad-spectrum”.
The term “critical wavelength” is defined as the wavelength at which the area under the UV protection curve (% protection versus wavelength) represents 90% of the total area under the curve in the UV region (280-400 nm). […]
In order to calculate the critical wavelength (λc), mathematical integration of the measured spectral absorbance from […] to 400 nm is performed to calculate the area beneath the absorbance curve. The critical wavelength value is based upon the inherent shape and breadth of the absorbance cure, not its amplitude. The critical wavelength is the wavelength below which 90% of the area under the absorbance curve sides. […]
The samples are measured using the UV-200S device, using the specified Colipa method. […]
as §12

[4] = 1.0% by weight added to sunscreen with modern organic UV-filter mixture (Example 1; control SPF 31.7)
[5] = 1.0% by weight, classic organic UV-filter combination (Example 3)
[6] = 1.0% by weight, classic organic UV-filter combination (Example 3; control SPF 33.7)
[7] = 1.0% by weight, modern organic UV-filter mixture (Example 1)
[8] = 3.0% by weight added to sunscreen with modern organic UV-filter mixture (Example 1; control SPF 31.7)
[9] = 3.0% by weight, classic organic UV-filter combination (Example 3)
[10] = 3.0% by weight, classic organic UV-filter combination (Example 3; control SPF 33.7)
[11] = 3.0% by weight, modern organic UV-filter mixture (Example 1)
[12] = 3.0%, modern organic UV-filter mixture (Example 1)

| Structure (SMILES) | in vitro SPF [1, 4] | in vitro SPF higher than reference sample without MAA [1, 5] [%] | in vitro SPF [1, 6] | in vitro SPF higher than reference sample without MAA [1, 7] [%] | in vitro SPF [1, 8] | in vitro SPF higher than reference sample without MAA [1, 9] [%] | in vitro SPF [1, 10] | in vitro SPF higher than reference sample without MAA [1, 11] [%] | improvement of the UVA-PF compared to the control sample [2, 12] [%] | in vitro SPF higher than control/reference sample without MAA ([1]; 1.0% by weight, modern organic UV-filter mixture of Example 2) [%] | in vitro SPF ([1]; 1.0% by weight, modern organic UV-filter mixture of Example 2 (control SPF 52.4)) | improvement of the UVA-PF compared to the control sample ([2]; 1.0%, modern organic UV-filter mixture of Example 2) [%] | critical wavelength ([3]; 1.0% and 3.0%, classic sunscreen composition (Example 3; without MAA 380 nm)) [nm] | critical wavelength ([3]; 3.0%, modern sunscreen composition (Example 1; without MAA 378 nm)) [nm] | improvement of the UVA-PF compared to the control sample ([2]; 1.0%, classic organic UV-filter combination (Example 3)) [%] | improvement of the UVA-PF compared to the control sample ([2]; 1.0%, modern organic UV-filter mixture (Example 1)) [%] | improvement of the UVA-PF compared to the control sample ([2]; 3.0%, classic organic UV-filter combination (Example 3)) [%] |
| --- | --- | --- | --- | --- | --- | --- | --- | --- | --- | --- | --- | --- | --- | --- | --- | --- | --- |
| CCOC(=O)CNC1=C/C(=N/c2ccccc2)CC(C)(C)C1 [MAA-1, ethyl 2-[[5,5-dimethyl-3-phenylimino-cyclohexen-1-yl]amino]acetate] | 53.4 | 5.0 | 35.4 | 68.5 | 86.1 | 61.4 | 54.4 | 171.6 | 9.35 |  |  |  |  |  |  |  |  |
| CC1(C)CC(NCC(=O)O)=C/C(=N/c2ccccc2)C1 [MAA-20, 2-[(5,5-dimethyl-3-phenylimino-cyclohexen-1-yl)amino]acetic acid] |  |  |  |  |  |  |  |  |  | 9 | 57.1 | 18.2 |  |  |  |  |  |
| COc1ccc(/N=C2\CC(C)(C)CC3=C2SCC(C(=O)O)N3)cc1OC (centres unmarked) [MAA-13, 8-((3,4-dimethoyxphenyl)imino)-6,6-dimethyl-3,4,5,6,7,8-hexahydro-2-H-benzol[b][1,4]thiazine-3-carboxylic acid] | 34.4 | 7.7 | 36.3 | 8.52 | 39.8 | 87.2 | 63.1 | 25.6 | 30.75 |  |  |  | 381 | 379 | 3.2 | 14.8 | 5.2 |
